Reference: US9211310B2, “Use of a Chinese medicine composition in preparing medicaments for treating secondary prevention of myocardial infarction” (TASLY PHARMACEUTICAL GROUP CO., LTD, priority 2010, dated 2015)

System: patients after acute myocardial infarction
Experiment: Life quality, Seattle Angina Questionnaire (SAQ), same clinical trial
Assay type: in vivo, human
Conditions: PP; 3 months after treatment
From the text: 3508 patients who were in accordance with the diagnostic standards of AMI for 28 days to 2 years and differentiated as Qi deficiency and blood stagnation syndrome by TCM were studied. 0.5 g Chinese medicine composition prepared by the method of EXAMPLE 1 (Coded as QSYQ) was administrated half an hour after meal, 3 times per day.
There were 19 questions in the Seattle angina questionnaire (SAQ), including 5 parts: physical limitation (PL), anginal stability (AS), anginal frequency (AF), treatment satisfaction (TS) and disease perception (DP). After being given necessary explanation by doctors, the questions were answered independently by patients.
They included the overall survival time, angina pectoris score, TCM symptom score and life quality score, where angina pectoris score, TCM symptom score and life quality score were evaluated at randomization, in 1st, 3rd, 6th, 9th, 12th month after treatment and 18th month after follow-up.
All evaluation results of SAQ were described during the period of observation, and Wilcoxon rank sum test was used for inter-group comparison.
The evaluation results in the SAQ were depicted in different observations, and inter-group comparison was tested by Wilcoxon Rank-sum test.

Q: With `CC(=O)Oc1ccccc1C(=O)O` [Control group, aspirine] as the compound, how does the “11th question: Often worried, patients (%)” value read?
A: (19.03%)

Q: What about the “11th question: Seldom worried, patients (%)” value of the same compound?
A: (30.12%)

Q: And the “SAQ 4th question, 1-2 times per week: % of patients” value?
A: (17.09%)

Q: What about the “SAQ 4th question, 1-2 times per week: number of patients” value of the same compound?
A: 251

Q: And the “SAQ 4th question, 1-3 times per day: % of patients” value?
A: (5.31%)

Q: And the “SAQ 4th question, 1-3 times per day: number of patients” value?
A: 78

Q: And the “SAQ 4th question, <1 time per week: % of patients” value?
A: (10.35%)

Q: And the “SAQ 4th question, <1 time per week: number of patients” value?
A: 152

Q: What about the “SAQ 4th question, Not used: % of patients” value of the same compound?
A: (56.71%)

Q: And the “SAQ 4th question, Not used: number of patients” value?
A: 833

Q: What about the “SAQ 4th question, ≧3 times per week: % of patients” value of the same compound?
A: (10.55%)

Q: And the “SAQ 4th question, ≧3 times per week: number of patients” value?
A: 155

Q: What about the “SAQ 4th question, ≧4 times per day: % of patients” value of the same compound?
A: (0.00%)

Q: And the “SAQ 4th question, ≧4 times per day: number of patients” value?
A: 0

Q: And the “SAQ 5th question, Few: % of patients” value?
A: (24.57%)

Q: What about the “SAQ 5th question, Few: number of patients” value of the same compound?
A: 361

Q: What about the “SAQ 5th question, Mild: % of patients” value of the same compound?
A: (26.14%)

Q: And the “SAQ 5th question, Mild: number of patients” value?
A: 384

Q: What about the “SAQ 5th question, Moderate: % of patients” value of the same compound?
A: (16.13%)

Q: What about the “SAQ 5th question, Moderate: number of patients” value of the same compound?
A: 237

Q: And the “SAQ 5th question, None: % of patients” value?
A: (27.16%)

Q: And the “SAQ 5th question, None: number of patients” value?
A: 399

Q: What about the “SAQ 5th question, Not medicated by doctors: % of patients” value of the same compound?
A: (4.56%)

Q: What about the “SAQ 5th question, Not medicated by doctors: number of patients” value of the same compound?
A: 67

Q: What about the “SAQ 5th question, Severe: % of patients” value of the same compound?
A: (1.43%)

Q: And the “SAQ 5th question, Severe: number of patients” value?
A: 21

Q: What about the “SAQ 6th question, Dissatisfied: % of patients” value of the same compound?
A: (0.07%)

Q: What about the “SAQ 6th question, Dissatisfied: number of patients” value of the same compound?
A: 1

Q: And the “SAQ 6th question, Highly satisfied: % of patients” value?
A: (20.04%)

Q: What about the “SAQ 6th question, Highly satisfied: number of patients” value of the same compound?
A: 295

Q: And the “SAQ 6th question, Mostly dissatisfied: % of patients” value?
A: (2.51%)

Q: What about the “SAQ 6th question, Mostly dissatisfied: number of patients” value of the same compound?
A: 37

Q: And the “SAQ 6th question, Mostly satisfied: % of patients” value?
A: (51.09%)

Q: What about the “SAQ 6th question, Mostly satisfied: number of patients” value of the same compound?
A: 752

Q: What about the “SAQ 6th question, Partly satisfied: % of patients” value of the same compound?
A: (26.29%)

Q: And the “SAQ 6th question, Partly satisfied: number of patients” value?
A: 387

Q: And the “SAQ 7th question, Dissatisfied: % of patients” value?
A: (0.07%)

Q: And the “SAQ 7th question, Dissatisfied: number of patients” value?
A: 1

Q: And the “SAQ 7th question, Highly satisfied: % of patients” value?
A: (23.06%)

Q: And the “SAQ 7th question, Highly satisfied: number of patients” value?
A: 339

Q: What about the “SAQ 7th question, Mostly dissatisfied: % of patients” value of the same compound?
A: (1.84%)

Q: What about the “SAQ 7th question, Mostly dissatisfied: number of patients” value of the same compound?
A: 27

Q: And the “SAQ 7th question, Mostly satisfied: % of patients” value?
A: (53.47%)

Q: What about the “SAQ 7th question, Mostly satisfied: number of patients” value of the same compound?
A: 786

Q: What about the “SAQ 7th question, Partly satisfied: % of patients” value of the same compound?
A: (21.56%)

Q: And the “SAQ 7th question, Partly satisfied: number of patients” value?
A: 317

Q: And the “SAQ Question 1-1 Mildly limited, number of patients” value?
A: 22

Q: And the “SAQ Question 1-1 Mildly limited, percent of patients” value?
A: (1.50%)

Q: And the “SAQ Question 1-1 Moderately limited, number of patients” value?
A: 6

Q: And the “SAQ Question 1-1 Moderately limited, percent of patients” value?
A: (0.41%)

Q: And the “SAQ Question 1-1 Not limited, number of patients” value?
A: 1381

Q: What about the “SAQ Question 1-1 Not limited, percent of patients” value of the same compound?
A: (93.95%)

Q: And the “SAQ Question 1-1 Other reasons, number of patients” value?
A: 3

Q: What about the “SAQ Question 1-1 Other reasons, percent of patients” value of the same compound?
A: (0.20%)

Q: What about the “SAQ Question 1-1 Severely limited, number of patients” value of the same compound?
A: 0

Q: And the “SAQ Question 1-1 Severely limited, percent of patients” value?
A: (0.00%)

Q: And the “SAQ Question 1-1 Slightly limited, number of patients” value?
A: 58

Q: And the “SAQ Question 1-1 Slightly limited, percent of patients” value?
A: (3.95%)

Q: And the “SAQ Question 1-2 Mildly limited, number of patients” value?
A: 19

Q: And the “SAQ Question 1-2 Mildly limited, percent of patients” value?
A: (1.29%)

Q: And the “SAQ Question 1-2 Moderately limited, number of patients” value?
A: 8

Q: What about the “SAQ Question 1-2 Moderately limited, percent of patients” value of the same compound?
A: (0.54%)

Q: And the “SAQ Question 1-2 Not limited, number of patients” value?
A: 1353

Q: What about the “SAQ Question 1-2 Not limited, percent of patients” value of the same compound?
A: (92.04%)

Q: And the “SAQ Question 1-2 Other reasons, number of patients” value?
A: 6

Q: And the “SAQ Question 1-2 Other reasons, percent of patients” value?
A: (0.41%)

Q: What about the “SAQ Question 1-2 Severely limited, number of patients” value of the same compound?
A: 0

Q: What about the “SAQ Question 1-2 Severely limited, percent of patients” value of the same compound?
A: (0.00%)

Q: And the “SAQ Question 1-2 Slightly limited, number of patients” value?
A: 84

Q: And the “SAQ Question 1-2 Slightly limited, percent of patients” value?
A: (5.71%)

Q: What about the “SAQ Question 1-6: Mildly limited, patients (%)” value of the same compound?
A: (17.92%)

Q: What about the “SAQ Question 1-6: Moderately limited, patients (%)” value of the same compound?
A: (13.89%)

Q: What about the “SAQ Question 1-6: Not limited, patients (%)” value of the same compound?
A: (30.92%)

Q: And the “SAQ Question 1-6: Other reasons, patients (%)” value?
A: (0.96%)

Q: And the “SAQ Question 1-6: Severely limited, patients (%)” value?
A: (3.83%)

Q: And the “SAQ Question 1-6: Slightly limited, patients (%)” value?
A: (32.49%)

Q: And the “SAQ Question 1-7: Mildly limited, patients (%)” value?
A: (23.81%)
